Reference: publication PMC8583042, “New Hybrid Compounds Combining Fragments of Usnic Acid and Thioether Are Inhibitors of Human Enzymes TDP1, TDP2 and PARP1” (International Journal of Molecular Sciences, 2021)

Experiments:
[1] = EZ4U colorimetric cytotoxicity test, HEK293A; assay type: cell-based; conditions: human
Description: (§1) The low intrinsic cytotoxicity of the additional drug component in the clinically used anticancer cocktails with traditional drugs is very important for treatment. This approach in chemotherapy can reduce the potential resulting toxic load on the body in the case of a combined action of these inhibitors on the activity of several targets. […] The effects of the tested compounds on cell survival are shown on Figure 4 and the CC50 values for three cell lines are shown in Table 1. The intrinsic cytotoxicity of a number of the studied compounds is quite high, namely, they have close IC50 values against the TDP1 and CC50 values on one or several studied cell lines. Most of the compounds generally were more toxic for the HEK293FT and HeLa cell lines than for the HEK293A cell line (Table 1 and Figure 4). The cytotoxicity of the three leader compounds, 7g, 10a, and 7h, was quite high. […] Compound 10b was one of the least toxic among the ten tested compounds.
(§2) Cytotoxicity of the compounds was examined against human cell lines HEK293A (human embryonic kidney)—WT, TDP1 deficient (Tdp1-/-), PARP1 deficient (PARP1-/-), and HeLa (cervical cancer) using an EZ4U colorimetric test (Biomedica, Vienna, Austria). The HEK293A cell line was obtained from Thermo Fisher Scientific (Waltham, MA, USA), and the HeLa cell line was obtained from the Russian Cell Culture Collection (RCCC) Institute of Cytology RAS, St. Petersburg, Russia. The cells were grown in DMEM/F12 medium (Gibco, Thermo Fisher Scientific, Waltham, MA, USA), with 1x GlutaMAX (Gibco, Thermo Fisher Scientific, Waltham, MA, USA), 50 IU/mL penicillin, 50 μg/mL streptomycin (MP Biomedicals), and in the presence of 10% fetal bovine serum (Biolot, Saint-Petersburg, Russia) in a 5% CO2 atmosphere. Cells were grown in the presence of 1% DMSO in the control wells. After the formation of a 30–50% monolayer, the tested compounds were added to the medium, and the cell culture was monitored for 3 days. The values were normalized to their own control in each case. At least three independent experiments were carried out. The 50% cytotoxic concentration (CC50) was defined as the compound concentration that reduced the cell viability by 50% when compared to the untreated controls. The compound concentration that caused 50% cell growth inhibition was determined using OriginPro 8.6.0 software (OriginLab, Northampton, MA, USA). The measurements were carried out in three independent experiments.

[2] = EZ4U colorimetric cytotoxicity test, HeLa; assay type: cell-based, human; conditions: human, HeLa cells; intrinsic cytotoxicity, compound alone, 3 days
Description: as §1, §2

[3] = Colorimetric cytotoxicity test, HEK293A Tdp1-/-; assay type: cell-based; conditions: human, HEK293A Tdp1-/- cells; TDP1-/- cell line, intrinsic cytotoxicity (Figure 6)
Description: In our previous works, we checked the cytotoxic effect of Tpc and the TDP1 inhibitors—monoterpene 3-carene-derived compounds [48, 49] and UA combined with monoterpenoids, measured separately and jointly with Tpc—using a panel of HEK293FT and HEK293A Tdp1 knockout isogenic clones. […] The data on the HEK293FT mutants were of low reproducibility, which is why we decided to change the basic cell line to HEK293A [49]. In this work, we created new PARP1-/- HEK293A cells using the CRISPR–Cas9 approach (Figure S27). […] We checked the intrinsic cytotoxicity of the leader compound (10a) on the HEK293 wild type and TDP1-/- and PARP1-/- cell lines using a colorimetric test (Figure 6). […] There was no difference between the WT and mutant cells.
Cytotoxicity of the compounds was examined against human cell lines HEK293A (human embryonic kidney)—WT, TDP1 deficient (Tdp1-/-), PARP1 deficient (PARP1-/-), and HeLa (cervical cancer) using an EZ4U colorimetric test (Biomedica, Vienna, Austria). […] After the formation of a 30–50% monolayer, the tested compounds were added to the medium, and the cell culture was monitored for 3 days. […] The compound concentration that caused 50% cell growth inhibition was determined using OriginPro 8.6.0 software (OriginLab, Northampton, MA, USA). […]

SMILES | CC50 at 3 days ([1]; HEK293A cells, intrinsic cytotoxicity, 3 days, read-out: HEK293A CC50) [µM] | CC50 at 3 days ([1]; wild-type HEK293A cells, HEK293 wild type, intrinsic cytotoxicity (Figure 6), read-out: CC50) [µM] | CC50 at 3 days [2] [µM] | CC50 at 3 days [3] [µM]
CC(=O)C1=C(O)C=C2Oc3c(C(=O)C[S+]([O-])c4nc5ccccc5s4)c(O)c(C)c(O)c3[C@@]2(C)C1=O (stereo partly drawn) [10a, (2R)-4-acetyl-10-[2-(1,3-benzothiazole-2-sulfinyl)acetyl]-5,11,13-trihydroxy-2,12-dimethyl-8-oxatricyclo[7.4.0.0^2,7]trideca-1(13),4,6,9,11-pentaen-3-one] | 20 ± 2 | 15 to 20 | 15 ± 1 | 15 to 20
CC(=O)c1c(O)c(C)c(O)c2c1OC1=CC(=O)C(C(C)=O)C(=O)C12C (centres unmarked) [UA, usnic acid] |  |  | 20 ± 10 | 
